Reference: patent publication US20170152239A1, “BENZAMIDE AND HETEROBENZAMIDE COMPOUNDS” (PFIZER INC., priority 2012, published 2017)

molecular target: WT EZH2 (EZH2 4 protein complex: EZH2, EED, SUZ12, RbAp48) (Homo sapiens, UniProt O75530+Q09028+Q15022+Q15910); experiment: WT EZH2 nucleosome assay; format: biochemical; conditions: nucleosome assay, 5 nM EZH2 4-protein complex, 1.5 μM SAM; read-out: WT EZH2 IC50
How it was run: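 IC50 values come from 4-parameter fits of 11-point dose responses, with % effect also given at 20 μM. Reactions held HeLa oligonucleosomes (25 μg/mL), rH1 (50 nM), 1.5 μM tritiated SAM and 5 nM enzyme complex at pH 8.5 Tris/DTT/Tween; stopped by TCA after 60 min, filtered and scintillation-counted.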

Sequence of WT EZH2 (EZH2 4 protein complex: EZH2, EED, SUZ12, RbAp48) (Q15910 whole entry): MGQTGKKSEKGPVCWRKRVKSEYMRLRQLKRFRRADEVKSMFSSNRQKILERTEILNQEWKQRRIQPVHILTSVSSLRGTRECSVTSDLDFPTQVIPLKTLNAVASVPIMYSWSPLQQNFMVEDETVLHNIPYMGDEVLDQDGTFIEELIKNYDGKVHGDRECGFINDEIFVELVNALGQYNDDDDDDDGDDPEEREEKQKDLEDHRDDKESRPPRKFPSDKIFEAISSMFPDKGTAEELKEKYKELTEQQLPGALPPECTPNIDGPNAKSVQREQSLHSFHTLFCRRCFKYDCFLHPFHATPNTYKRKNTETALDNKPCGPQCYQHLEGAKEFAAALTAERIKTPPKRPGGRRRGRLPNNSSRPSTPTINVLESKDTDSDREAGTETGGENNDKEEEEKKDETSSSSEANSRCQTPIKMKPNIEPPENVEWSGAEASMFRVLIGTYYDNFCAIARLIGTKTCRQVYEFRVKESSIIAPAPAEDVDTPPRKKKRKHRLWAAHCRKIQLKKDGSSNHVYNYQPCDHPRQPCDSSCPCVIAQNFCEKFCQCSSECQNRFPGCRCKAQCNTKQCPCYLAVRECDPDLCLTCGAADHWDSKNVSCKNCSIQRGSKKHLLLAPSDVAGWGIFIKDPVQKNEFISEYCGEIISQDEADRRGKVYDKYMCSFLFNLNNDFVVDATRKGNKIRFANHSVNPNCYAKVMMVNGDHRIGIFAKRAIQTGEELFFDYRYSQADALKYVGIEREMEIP
Sequence of WT EZH2 (EZH2 4 protein complex: EZH2, EED, SUZ12, RbAp48) (O75530 whole entry partner): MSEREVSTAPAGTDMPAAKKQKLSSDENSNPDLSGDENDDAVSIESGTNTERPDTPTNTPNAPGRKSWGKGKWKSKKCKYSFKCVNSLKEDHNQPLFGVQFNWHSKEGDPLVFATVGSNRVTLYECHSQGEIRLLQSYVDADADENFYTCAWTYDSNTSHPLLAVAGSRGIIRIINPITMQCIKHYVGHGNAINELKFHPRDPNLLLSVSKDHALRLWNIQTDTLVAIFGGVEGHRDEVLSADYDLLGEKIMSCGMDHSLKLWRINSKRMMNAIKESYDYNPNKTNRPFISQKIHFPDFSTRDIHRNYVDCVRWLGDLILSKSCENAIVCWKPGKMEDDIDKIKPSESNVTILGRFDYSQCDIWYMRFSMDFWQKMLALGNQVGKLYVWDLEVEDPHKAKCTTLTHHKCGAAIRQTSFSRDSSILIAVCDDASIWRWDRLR
Sequence of WT EZH2 (EZH2 4 protein complex: EZH2, EED, SUZ12, RbAp48) (Q15022 whole entry partner): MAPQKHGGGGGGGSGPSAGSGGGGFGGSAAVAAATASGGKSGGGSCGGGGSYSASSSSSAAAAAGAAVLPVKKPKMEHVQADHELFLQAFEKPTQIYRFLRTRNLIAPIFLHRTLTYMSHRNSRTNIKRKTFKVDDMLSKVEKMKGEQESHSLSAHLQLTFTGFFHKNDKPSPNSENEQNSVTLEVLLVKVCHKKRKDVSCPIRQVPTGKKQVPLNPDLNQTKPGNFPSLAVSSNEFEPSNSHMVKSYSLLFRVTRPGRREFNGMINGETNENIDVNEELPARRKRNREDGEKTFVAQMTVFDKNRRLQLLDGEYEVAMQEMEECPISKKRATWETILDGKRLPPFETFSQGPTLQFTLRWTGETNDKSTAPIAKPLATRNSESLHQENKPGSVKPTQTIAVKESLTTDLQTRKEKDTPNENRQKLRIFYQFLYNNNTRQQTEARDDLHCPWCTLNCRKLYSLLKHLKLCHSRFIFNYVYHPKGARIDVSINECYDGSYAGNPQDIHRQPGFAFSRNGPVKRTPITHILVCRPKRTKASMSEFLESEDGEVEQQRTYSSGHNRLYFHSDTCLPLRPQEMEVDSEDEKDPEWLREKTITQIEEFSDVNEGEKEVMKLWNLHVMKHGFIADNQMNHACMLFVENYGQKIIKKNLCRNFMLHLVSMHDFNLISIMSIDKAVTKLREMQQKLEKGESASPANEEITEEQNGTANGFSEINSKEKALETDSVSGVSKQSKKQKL
Sequence of WT EZH2 (EZH2 4 protein complex: EZH2, EED, SUZ12, RbAp48) (Q09028 whole entry partner): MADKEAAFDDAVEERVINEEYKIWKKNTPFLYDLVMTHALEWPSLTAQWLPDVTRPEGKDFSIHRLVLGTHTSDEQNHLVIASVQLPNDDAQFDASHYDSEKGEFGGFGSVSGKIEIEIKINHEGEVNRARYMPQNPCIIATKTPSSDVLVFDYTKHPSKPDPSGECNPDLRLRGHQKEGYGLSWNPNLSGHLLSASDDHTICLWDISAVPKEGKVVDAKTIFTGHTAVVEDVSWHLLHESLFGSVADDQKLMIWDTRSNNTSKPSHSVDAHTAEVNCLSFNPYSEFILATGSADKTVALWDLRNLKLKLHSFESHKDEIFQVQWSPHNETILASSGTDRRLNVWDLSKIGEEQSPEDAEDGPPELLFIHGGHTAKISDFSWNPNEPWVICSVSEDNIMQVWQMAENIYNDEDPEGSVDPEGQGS

Compared with `Cc1cc(C)c(CNC(=O)c2ncnc(N3CCC[C@@H]3C#N)c2C)c(=O)[nH]1` [Example 116, 6-[(2R)-2-cyanopyrrolidin-1-yl]-N-[(4,6-dimethyl-2-oxo-1,2-dihydropyridin-3-yl)methyl]-5-methyl-pyrimidine-4-carboxamide], `Cc1cc(C)c(CNC(=O)c2ncnc(N3CCC[C@@H]3C(N)=O)c2C)c(=O)[nH]1` [Example 145, 6-[(2R)-2-carbamoyl-pyrrolidin-1-yl]-N-[(4,6-dimethyl-2-oxo-1,2-dihydropyridin-3-yl)methyl]-5-methylpyrimi-dine-4-carboxamide] is higher in IC50: 29.2 µM for the first, over 200 µM for the second.

`Cc1cc(C)c(CNC(=O)c2cccc(-c3c(C)cnn3C)c2C)c(=O)[nH]1` [Example 1, N-[(4,6-dimethyl-2-oxo-1,2-dihydropyridin-3-yl)methyl]-3-(1,4-dimethyl-1H-pyrazol-5-yl)-2-methylbenzamide] and `Cc1cc(C)c(CNC(=O)c2cc(C#N)cc(-c3c(C)cnn3C)c2C)c(=O)[nH]1` [Example 30, 5-cyano-N-[(4,6-dimethyl-2-oxo-1,2-dihydropyridin-3-yl)methyl]-3-(1,4-dimethyl-1H-pyrazol-5-yl)-2-methylbenzamide] are within 1.5-fold of each other in IC50: 0.47 µM for the first, 0.54 µM for the second.

Going from `CNc1ncc(-c2nc(C(=O)NCc3c(C)cc(C)[nH]c3=O)c(C)c(-c3ccnn3C)n2)cn1` [Example 47, N-[(4,6-dimethyl-2-oxo-1,2-dihydropyridin-3-yl)methyl]-5-methyl-2′-(methylamino)-6-(1-methyl-1H-pyrazol-5-yl)-2,5′-bipyrimidine-4-carboxamide] to `Cc1cc(C)c(CNC(=O)c2nc(N3CCCC3)nc(-c3ccnn3C)c2C)c(=O)[nH]1` [Example 92, N-[(4,6-dimethyl-2-oxo-1,2-dihydropyridin-3-yl)methyl]-5-methyl-6-(1-methyl-1H-pyrazol-5-yl)-2-pyrrolidin-1-ylpyrimidine-4-carboxamide], the IC50 rises from 1.7 µM to 12.8 µM (7.5-fold).

`Cc1cc(C)c(CNC(=O)c2ncnc(-c3ccnn3C)c2Cl)c(=O)[nH]1` [Example 115, 5-chloro-N-[(4,6-dimethyl-2-oxo-1,2-dihydropyridin-3-yl)methyl]-6-(1-methyl-1H-pyrazol-5-yl)pyrimidine-4-carboxamide] and `Cc1cc(C)c(CNC(=O)c2nc(OCCN3CC(F)C3)nc(-c3ccnn3C)c2C)c(=O)[nH]1` [Example 109, N-[(4,6-dimethyl-2-oxo-1,2-dihydropyridin-3-yl)methyl]-2-[2-(3-fluoroazetidin-1-yl)ethoxy]-5-methyl-6-(1-methyl-1H-pyrazol-5-yl)pyrimidine-4-carboxamide] are within 1.5-fold of each other in IC50: 28.7 µM for the first, 23 µM for the second.

First: Cc1ccc(CNC(=O)c2nc(C3CC3)nc(-c3ccnn3C)c2C)c(=O)[nH]1 [Example 141, 2-cyclopropyl-5-methyl-N-[(6-methyl-2-oxo-1,2-dihydropyridin-3-yl)methyl]-6-(1-methyl-1H-pyrazol-5-yl)pyrimidine-4-carboxamide]
Second: Cc1cc(C)c(CNC(=O)c2nc(N3CCC(N)CC3)nc(-c3ccnn3C)c2C)c(=O)[nH]1 [Example 43, 2-(4-aminopiperidin-1-yl)-N-[(4,6-dimethyl-2-oxo-1,2-dihydropyridin-3-yl)methyl]-5-methyl-6-(1-methyl-1H-pyrazol-5-yl)pyrimidine-4-carboxamide]
The IC50 of the first is higher: over 200 µM for the first, 1.34 µM for the second. The second is the more potent here.

Going from `Cc1cc(C)c(CNC(=O)c2cccc(OC(C)C)c2F)c(=O)[nH]1` [Example 130, N-[(4,6-dimethyl-2-oxo-1,2-dihydropyridin-3-yl)methyl]-2-fluoro-3-isopropoxy-benzamide] to `CCOc1cccc(C(=O)NCc2c(C)cc(C)[nH]c2=O)c1F` [Example 134, N-[(4,6-dimethyl-2-oxo-1,2-dihydropyridin-3-yl)methyl]-3-ethoxy-2-fluoro-benzamide], the IC50 rises from 67.9 µM to 127 µM (1.9-fold).

Going from `Cc1cc(C)c(CNC(=O)c2cc(-c3cnc(N4CCOCC4)nc3)cc(-c3c(C)cnn3C)c2C)c(=O)[nH]1` [Example 21, N-[(4,6-dimethyl-2-oxo-1,2-dihydropyridin-3-yl)methyl]-3-(1,4-dimethyl-1H-pyrazol-5-yl)-2-methyl-5-(2-morpholin-4-ylpyrimidin-5-yl)benzamide] to `Cc1cc(C)c(CNC(=O)c2cc(C3=CCOCC3)cc(C3=CCOCC3)c2C)c(=O)[nH]1` [Example 42, 3,5-di-3,6-dihydro-2H-pyran-4-yl-N-[(4,6-dimethyl-2-oxo-1,2-dihydropyridin-3-yl)methyl]-2-methylbenz-amide], the IC50 rises from 0.019 µM to 1.12 µM (59-fold).

Going from `Cc1cc(C)c(CNC(=O)c2ccnc(OC(C)C)c2C)c(=O)[nH]1` [Example 87, N-[(4,6-dimethyl-2-oxo-1,2-dihydropyridin-3-yl)methyl]-2-isopropxy-3-methylisonico-tinamide] to `Cc1cc(C)c(CNC(=O)c2cccc(-c3c(C)ncnc3C)c2C)c(=O)[nH]1` [Example 64, N-[(4,6-dimethyl-2-oxo-1,2-dihydropyridin-3-yl)methyl]-3-(4,6-dimethylpyrimi-din-5-yl)-2-methylbenz-amide], the IC50 falls from 9.76 µM to 4.42 µM (2.2-fold).

`Cc1cc(C)c(CNC(=O)c2ncnc(N3CC[C@@H](C)C3)c2C)c(=O)[nH]1` [Example 120, N-[(4,6-dimethyl-2-oxo-1,2-dihydropyridin-3-yl)methyl]-5-methyl-6-[(3R)-3-methylpyrrolidin-1-yl]pyrimidine-4-carboxamide] and `Cc1cc(C)c(CNC(=O)c2ncnc(N3CCCC3)c2C)c(=O)[nH]1` [Example 125, N-[(4,6-dimethyl-2-oxo-1,2-dihydropyridin-3-yl)methyl]-5-methyl-6-pyrrolidin-1-ylpyrimidine-4-carboxamide] are within 1.5-fold of each other in IC50: 40.5 µM for the first, 50.7 µM for the second.

First: Cc1cc(C)c(CNC(=O)c2nc(N(C)C)nc(N3CCC[C@@H]3C)c2C)c(=O)[nH]1 [Example 96, 2-(dimethylamino)-N-[(4,6-dimethyl-2-oxo-1,2-dihydropyridin-3-yl)methyl]-5-methyl-6-[(2S)-2-methyplyrrolidin-1-yl]pyrimidine-4-carboxamide]
Second: Cc1cc(C)c(CNC(=O)c2nc(OC(C)C)nc(N3CCC[C@@H]3C)c2C)c(=O)[nH]1 [Example 57, N-[(4,6-dimethyl-2-oxo-1,2-dihydropyridin-3-yl)methyl]-2-isopropoxy-5-methyl-6-[(2S)-2 - methylpyrrolidin-1-yl]pyrimidine-4-carboxamide]
The IC50 of the first is 5.2-fold higher: 16.5 µM for the first, 3.2 µM for the second.

`Cc1cc(C)c(CNC(=O)c2ncnc(N3C4CCC3CC4)c2C)c(=O)[nH]1` [Example 83, 6-(7-azabicyclo[2.2.1]hept-7-yl)-N-[(4,6-dimethyl-2-oxo-1,2-dihydropyridin-3-yl)methyl]-5-methyl-pyrimidine-4-carobxamide] and `Cc1cc(C)c(CNC(=O)c2ncnc(N3CCC(C)(C)C3)c2C)c(=O)[nH]1` [Example 73, N-[(4,6-dimethyl-2-oxo-1,2-dihydropyridin-3-yl)methyl]-6-(3,3-dimethylpyrroli-din-1-yl)-5-methylpyrimi-dine-4-carboxamide] are within 1.5-fold of each other in IC50: 7.96 µM for the first, 6.5 µM for the second.

First: Cc1cc(C)c(CNC(=O)c2cc(Cl)cc(-n3ccnc3C)c2C)c(=O)[nH]1 [Example 29, 5-chloro-N-[(4,6-dimethyl-2-oxo-1,2-dihydropyridin-3-yl)methyl]-2-methyl-3-(2-methyl-1H-imidazol-1-yl)benzamide]
Second: Cc1cc(C)c(CNC(=O)c2cc(Cl)cc(-n3cnnc3C)c2C)c(=O)[nH]1 [Example 78, 5-chloro-N-[(4,6-dimethyl-2-oxo-1,2-dihydropyridin-3-yl)methyl]-2-methyl-3-(3-methyl-4H-1,2,4-triazol-4-yl)benzamide]
The IC50 of the first is 10-fold lower: 0.71 µM for the first, 7.31 µM for the second.

Compared with `COC[C@H]1CCCN1c1ncnc(C(=O)NCc2c(C)cc(C)[nH]c2=O)c1C` [Example 131, N-[(4,6-dimethyl-2-oxo-1,2-dihydropyridin-3-yl)methyl]-6-[(2R)-2-(methoxymeth-yl)pyrrolidin-1-yl]-5-methylpyrimidine-4-carboxamide], `Cc1cc(C)c(CNC(=O)c2ncnc(N3CCCC3C(F)(F)F)c2C)c(=O)[nH]1` (stereo not drawn) [Example 53, N-[(4,6-dimethyl-2-oxo-1,2-dihydropyridin-3-yl)methyl]-5-methyl-6-[2-(trifluoromethyl)pyrrolidin-1-yl]pyrimidine-4-carboxamide] is 31-fold lower in IC50: 77.8 µM for the first, 2.52 µM for the second. The second is the more potent here.

Compound `Cc1cc(C)c(CNC(=O)c2nc(OCCN3CC(F)(F)C3)nc(-c3ccnn3C)c2C)c(=O)[nH]1` [Example 117, 2-[2-(3,3-difluoroazetidin-1-yl)ethoxy]-N-[(4,6-dimethyl-2-oxo-1,2-dihydropyridin-3-yl)methyl]-5-methyl-6-(1-methyl-1H-pyrazol-5-yl)pyrimidine-4-carboxamide] has an IC50 of 31.1 µM.
